The record followed here is the SangsterLogP compilation.

Broadly, the logP is a log measure of how a compound divides between an organic and an aqueous phase. Low values mean lower lipophilicity, high ones higher lipophilicity.

Take `Cc1cccc(Nc2ccccc2C(=O)O)c1`: the logP amounted to 4.74.

In turn, `O=C(O)c1ccccc1Nc1cccc([N+](=O)[O-])c1` displayed a logP of 4.42.

In turn, `CC(=O)Oc1cccc(O)c1` registered a logP of 1.26.

Regarding `O=C(O)c1cccc(F)c1`, the logP worked out at 2.05.

`O=C1CCC(=O)N1c1cc(Cl)cc(Cl)c1Cl` displayed a log partition coefficient (logP) of 2.44.

As to `O=C(c1ccccc1)c1ccc(O)cc1`, the lipophilicity (logP) was determined as 2.91.

With `O=C1CCC(=O)N1c1cc(C(F)(F)F)cc(C(F)(F)F)c1`, the logP came out at 2.25.

For the compound `O=C1CCC(=O)N1c1ccc(C(F)(F)F)cc1`, the logP came out at 1.3.

The compound `O=C1CC(c2cccc(C(F)(F)F)c2)C(=O)N1` (stereo not drawn) came in with a log partition coefficient (logP) of 1.35.

With `CCCc1cccc(N2C(=O)CCC2=O)c1`, the log partition coefficient (logP) is 1.52.

As for `Cc1ccc(C(=O)O)cc1`, the lipophilicity (logP) came out at 2.43.

Regarding `O=C1CCC(=O)N1c1cc(Cl)cc(Cl)c1`, the lipophilicity (logP) was 1.88.

`O=C1CCC(=O)N1c1cc(Br)cc(Br)c1` had a log partition coefficient (logP) of 2.12.

As for `N#Cc1ccc(C(=O)O)cc1`, the logP was 1.55.

Consider `Cc1cc(C)cc(N2C(=O)CCC2=O)c1`, for which the logP is 1.16.

`O=C(O)c1cccc(Br)c1` had a lipophilicity (logP) of 2.83.

With `O=C1CCC(=O)N1c1cc(Cl)c(Cl)c(Cl)c1`, the logP was found to be 2.92.

Consider `Oc1cccc(C(F)(F)F)c1`, for which the logP came to 2.61.
